Laboratory results taken from article PMC11170107, “Development of a new hazard scoring system in primary neuronal cell cultures for drug-induced acute neuronal toxicity identification in early drug discovery” (Frontiers in Pharmacology, 2024).

Tests used:
[1] = established from VigiBase, SIDER, Elsevier drug information and FDA prescribing information
[2] = seizure ADR frequency in SIDER; ref Campillos et al., 2008; Kuhn et al., 2010; cited from earlier work
[3] = system: rat primary cortical neurons
[4] = Supplementary Table S1; cited from earlier work
[5] = system: rat primary cortical neurons; experiment: MEA hazard scoring in rat primary cortical neuronal cultures
[6] = WHO adverse drug reactions VigiBase; ref Kumlien and Lundberg, 2010; cited from earlier work
[7] = system: Male rats (Sprague-Dawley); experiment: EEG recordings and behavioral seizures in freely moving rats; type: in vivo; conditions: freely moving rat, iv
From the text: Electroencephalogram (EEG) rodent studies and assessment of seizures: Male rats (n = 8) (Sprague-Dawley), 400-800 g, were surgically implanted with Stellar Implantable Transmitter (E−430001-IMP-77, Type PBT-M-C Pressure, Biopotential, Temp; TSE systems USA) and microchipped with RFID (Bio13. Therm.03V1 PLS, Biomark Inc, USA) transponder for measurements of activity and body temperature. EEG was used to confirm that convulsive activity is linked to seizurogenic activity measured on the EEG.

[8] = ref National library of medicine, Daylimed; cited from earlier work

SMILES | Classification* (degree of seizure risk) [1] | SIDER ADR on-/off-label [2] | hazard score group in Figure 3 [3] | Free Cmax highest [4] [µM] | firing rate (weighted mean firing rate) in MEA recordings ([5]; rodent cortical neurons in vitro) | Percentage seizures of total number of ADRs [6] [%] | EEG spikes ([7]; 1 mg/kg) | convulsions and seizures ([7]; 3 mg/kg) | hazard classification in the hazard scoring system ([5]; rat primary neurons on MEA) | FDA prescription information at therapeutic dose (Convulsion/ Seizure/Lower the seizure threshold/withdrawal) [8]
Nc1ccncc1 [4-Aminopyridine] | Risk | no frequency information | Neuro Active to high hazard | 0.24 | largely increased | 2.353 | significantly increased | induced convulsions and seizures |  | 
O=C1CN=C(c2ccccc2Cl)c2cc([N+](=O)[O-])ccc2N1 [Clonazepam] | Risk | not found on label | Neuro Active to hazard | 0.012 |  | 2.831 |  |  | hazards | on label
CCCC(C)C1(CC)C(=O)NC(=O)NC1=O (stereo not drawn) [Pentobarbital] | Risk | not found on label | Neuro Active to hazard | 5.1 |  | 3.3557 |  |  |  | not found on label
